Measured values as given in BigSolDB 2.1.

Structure (SMILES): Cc1nnc(C(C)C)n1C1C[C@H]2CC[C@@H](C1)N2CC[C@H](NC(=O)C1CCC(F)(F)CC1)c1ccccc1 (stereo not given in full)
- solubility (mole fraction) (in 2-butanone, 278.2 K): 0.000179
- solubility (mole fraction) (in 2-butanone, 283.2 K): 0.000262
- solubility (mole fraction) (in 2-butanone, 288.2 K): 0.000349
- solubility (mole fraction) (in 2-butanone, 293.2 K): 0.000491
- solubility (mole fraction) (in 2-butanone, 298.2 K): 0.000715
- solubility (mole fraction) (in 2-butanone, 303.2 K): 0.00102
- solubility (mole fraction) (in 2-butanone, 308.2 K): 0.00137
- solubility (mole fraction) (in 2-butanone, 313.2 K): 0.00193
- solubility (mole fraction) (in 2-butanone, 318.2 K): 0.00257
- solubility (mole fraction) (in 2-butanone, 323.2 K): 0.00351
- solubility (mole fraction) (in 2-pentanone, 278.2 K): 0.000152
- solubility (mole fraction) (in 2-pentanone, 283.2 K): 0.000224
- solubility (mole fraction) (in 2-pentanone, 288.2 K): 0.000296
- solubility (mole fraction) (in 2-pentanone, 293.2 K): 0.000418
- solubility (mole fraction) (in 2-pentanone, 298.2 K): 0.000607
- solubility (mole fraction) (in 2-pentanone, 303.2 K): 0.00087
- solubility (mole fraction) (in 2-pentanone, 308.2 K): 0.00119
- solubility (mole fraction) (in 2-pentanone, 313.2 K): 0.00168
- solubility (mole fraction) (in 2-pentanone, 318.2 K): 0.00229
- solubility (mole fraction) (in 2-pentanone, 323.2 K): 0.00316
- solubility (mole fraction) (in DMF, 278.2 K): 3.5e-05
- solubility (mole fraction) (in DMF, 283.2 K): 5.6e-05
- solubility (mole fraction) (in DMF, 288.2 K): 7.6e-05
- solubility (mole fraction) (in DMF, 293.2 K): 0.000112
- solubility (mole fraction) (in DMF, 298.2 K): 0.000168
- solubility (mole fraction) (in DMF, 303.2 K): 0.000244
- solubility (mole fraction) (in DMF, 308.2 K): 0.000341
- solubility (mole fraction) (in DMF, 313.2 K): 0.000507
- solubility (mole fraction) (in DMF, 318.2 K): 0.000689
- solubility (mole fraction) (in DMF, 323.2 K): 0.00101
- solubility (mole fraction) (in DMSO, 278.2 K): 1.4e-05
- solubility (mole fraction) (in DMSO, 283.2 K): 2.4e-05
- solubility (mole fraction) (in DMSO, 288.2 K): 3.7e-05
- solubility (mole fraction) (in DMSO, 293.2 K): 5.6e-05
- solubility (mole fraction) (in DMSO, 298.2 K): 8.4e-05
- solubility (mole fraction) (in DMSO, 303.2 K): 0.000128
- solubility (mole fraction) (in DMSO, 308.2 K): 0.000173
- solubility (mole fraction) (in DMSO, 313.2 K): 0.000263
- solubility (mole fraction) (in DMSO, 318.2 K): 0.000358
- solubility (mole fraction) (in DMSO, 323.2 K): 0.00053
- solubility (mole fraction) (in ethanol, 278.2 K): 0.000281
- solubility (mole fraction) (in ethanol, 283.2 K): 0.000404
- solubility (mole fraction) (in ethanol, 288.2 K): 0.00052
- solubility (mole fraction) (in ethanol, 293.2 K): 0.000716
- solubility (mole fraction) (in ethanol, 298.2 K): 0.00102
- solubility (mole fraction) (in ethanol, 303.2 K): 0.00144
- solubility (mole fraction) (in ethanol, 308.2 K): 0.00189
- solubility (mole fraction) (in ethanol, 313.2 K): 0.00263
- solubility (mole fraction) (in ethanol, 318.2 K): 0.00344
- solubility (mole fraction) (in ethanol, 323.2 K): 0.00461
- solubility (mole fraction) (in n-butanol, 278.2 K): 0.0002
- solubility (mole fraction) (in n-butanol, 283.2 K): 0.000293
- solubility (mole fraction) (in n-butanol, 288.2 K): 0.000383
- solubility (mole fraction) (in n-butanol, 293.2 K): 0.000533
- solubility (mole fraction) (in n-butanol, 298.2 K): 0.000778
- solubility (mole fraction) (in n-butanol, 303.2 K): 0.00112
- solubility (mole fraction) (in n-butanol, 308.2 K): 0.0015
- solubility (mole fraction) (in n-butanol, 313.2 K): 0.00212
- solubility (mole fraction) (in n-butanol, 318.2 K): 0.00282
- solubility (mole fraction) (in n-butanol, 323.2 K): 0.00387
- solubility (mole fraction) (in n-propanol, 278.2 K): 0.00021
- solubility (mole fraction) (in n-propanol, 283.2 K): 0.00031
- solubility (mole fraction) (in n-propanol, 288.2 K): 0.00042
- solubility (mole fraction) (in n-propanol, 293.2 K): 0.000609
- solubility (mole fraction) (in n-propanol, 298.2 K): 0.00088
- solubility (mole fraction) (in n-propanol, 303.2 K): 0.00124
- solubility (mole fraction) (in n-propanol, 308.2 K): 0.00167
- solubility (mole fraction) (in n-propanol, 313.2 K): 0.00235
- solubility (mole fraction) (in n-propanol, 318.2 K): 0.00311
- solubility (mole fraction) (in n-propanol, 323.2 K): 0.00421
- solubility (mole fraction) (in water, 278.2 K): 6e-06
- solubility (mole fraction) (in water, 283.2 K): 9e-06
- solubility (mole fraction) (in water, 288.2 K): 1.2e-05
- solubility (mole fraction) (in water, 293.2 K): 1.7e-05
- solubility (mole fraction) (in water, 298.2 K): 2.5e-05
- solubility (mole fraction) (in water, 303.2 K): 3.6e-05
- solubility (mole fraction) (in water, 308.2 K): 4.8e-05
- solubility (mole fraction) (in water, 313.2 K): 6.9e-05
- solubility (mole fraction) (in water, 318.2 K): 9.2e-05
- solubility (mole fraction) (in water, 323.2 K): 0.000129
